Numbers after ± are expanded uncertainties.
Conditions: 100 kPa, Liquid, Vibrating tube method

mass density (288.15 K) | mass density (298.15 K) | mass density (308.15 K) | mass density (318.15 K) | mass density (328.15 K) | SMILES
1137.91 ± 0.11 kg/m3 | 1129.49 ± 0.11 kg/m3 | 1121.04 ± 0.11 kg/m3 | 1112.55 ± 0.1 kg/m3 | 1104.04 ± 0.1 kg/m3 | NC=O [formamide]
 |  |  |  | 985.69 ± 0.05 kg/m3 | O [water]

— the NIST ThermoML archive (doi:10.1021/acs.jced.9b00794)
